The source of these data is patent US20050136444A1 (priority 2003, published 2005).

One data set addresses T1, NPFF2b (Homo sapiens, UniProt Q9Y5X5).
T1 construct: expressed in transfected cells; host or cells: HEK-T
In words: cAMP assay in transiently transfected HEK-T cells, NPFF2. The format is cell-based. Conditions: HEK-T cell, read-out: NPFF2b % Efficacy Mean. As for the experimental part:
An assay was established for measuring cAMP in transiently transfected cells that takes advantage of the fact that most cells that are transfected with one gene, can be simultaneously transfected with other genes. Thus, the NPFF1 and NPFF2 receptors were transfected along with a Gs-coupled receptor (EP2) at a ratio of 5:1.
This set up was routinely used for the transfection of HEK-T cells with NPFF1 and NPFF2 receptors. […] Cells were incubated for 15 minutes at 37° C. At the end of incubation, cells were lysed and the remainder of the assay performed as per DiscoveRx protocol.
Cells were incubated for another 15 minutes at 37° C. following which the cells were lysed and processed as per kit protocol.

For the next data set, the target named is NPFF1 (Homo sapiens, UniProt Q9GZQ6). In words: Receptor Selection and Amplification Technology (R-SAT) functional assay, NPFF1. The class given is cell-based. Details: expressed in transfected cells; host or cells: NIH3T3. Conditions: for EC50: NA = No activity detectable at the highest dose tested (20 μM), read-out: NPFF1 pEC50 (converted). As for the experimental part: (§1) Briefly, NIH3T3 cells were grown in 96 well tissue culture plates to 70-80% confluence. Cells were transfected for 16-20 h h with plasmid DNAs using Polyfect (Qiagen Inc.) as per manufacturer's protocols. R-SAT's were generally performed with 40 ng/well of receptor and 20 ng/well of β-galactosidase plasmid DNA. All receptor and G-protein constructs used were in the pSI-derived mammalian expression vector (Promega Inc) as described previously. […] For large-scale transfections, cells were transfected for 16-20 h, then trypsinized and frozen in DMSO. Frozen cells were later thawed, plated at ˜20,000 cells per well of a 96 half-area well plate that contained drug. With both methods, cells were then grown in a humidified atmosphere with 5% ambient CO2 for five days. Media was then removed from the plates and marker gene activity was measured by the addition of the β-galactosidase substrate o-nitrophenyl β-D-galactopyranoside (ONPG, in PBS with 0.5% NP-40). The resulting colorimetric reaction was measured in a spectrophotometric plate reader (Titertek Inc.) at 420 nm. All data were analyzed using the computer program XLFit (IDBSm).
Chain of NPFF1 (Q9GZQ6 whole entry, species assumed): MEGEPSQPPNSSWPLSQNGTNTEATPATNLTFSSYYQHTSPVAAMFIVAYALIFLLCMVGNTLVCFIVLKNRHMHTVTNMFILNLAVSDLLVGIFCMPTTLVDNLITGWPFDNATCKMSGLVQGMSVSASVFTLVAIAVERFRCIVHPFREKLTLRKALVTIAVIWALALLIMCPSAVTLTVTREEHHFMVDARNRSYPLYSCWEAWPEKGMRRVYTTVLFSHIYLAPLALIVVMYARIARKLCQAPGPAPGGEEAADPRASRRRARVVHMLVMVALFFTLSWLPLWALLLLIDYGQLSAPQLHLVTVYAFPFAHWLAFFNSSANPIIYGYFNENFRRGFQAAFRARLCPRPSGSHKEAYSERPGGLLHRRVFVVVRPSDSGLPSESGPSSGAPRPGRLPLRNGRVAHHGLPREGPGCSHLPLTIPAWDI
(§2) R-SAT assay was conducted as set forth in […]

A further data set has as its target T2, NPFF2 (Homo sapiens, UniProt Q9Y5X5).
T2 construct: expressed in transfected cells; host or cells: NIH3T3
Put plainly: Receptor Selection and Amplification Technology (R-SAT) functional assay, NPFF2. The format is cell-based. As for the experimental part: as §1, §2

A further data set concerns rats. In words: Observed behaviors / side effects after systemic administration. The format is in vivo, rat. As to conditions: rats, i.p. As for the experimental part:
These behaviors typically precede “barrel-rolling” seizures.
These effects persisted between 15 and 20 minutes. These effects were not observed in rats that received doses less than 10 mg/kg.
These effects persisted between 15 and 20 minutes and were shown by both sham-operated and SNL rats. These effects were not observed in rats that received doses less than 10 mg/kg. [drawing 22]
However, these effects were more robust and of longer duration (60-90 min).
These effects persisted between 60 and 90 minutes and were shown by both sham-operated and SNL rats. These effects were not observed in rats that received doses less than 10 mg/kg. [drawing 23]
A model of neuropathic pain was created in rats by tight ligation of the L5 and L6 spinal nerves. […] Rats were then treated with various doses of dPQR (3, 10 and 30 mg/kg, i.p.) and paw withdrawal thresholds were tested across a period of 3 hours.
A model of neuropathic pain was created in rats by tight ligation of the L5 and L6 spinal nerves. […] Rats were then treated with various doses of Compound 3099 (1, 3 and 10 mg/kg, i.p.) and paw withdrawal thresholds were tested across a period of 3 hours.
In an attempt to increase the efficacy of Compound 3099 in the SNL model, we administered a dose of 30 mg/kg (i.p.) to SNL rats. […] Further, these behaviors were also transient, such that, by the end of the testing period these effects appeared to have resolved.

Data set [1] concerns 52° C. Water Tail Flick Test. Put plainly: 52° C. Water Tail Flick Test, intrathecal administration. The format is in vivo, rat. As to conditions: rats. As for the experimental part: Rats were implanted with chronically indwelling intrathecal catheters (PE-10; 7.5 cm) allowing for the delivery of compounds to the lumbar spinal cord. As a positive control, rats were treated with various doses of morphine (3, 10 and 30 μg).
Rats were implanted with chronically indwelling intrathecal catheters (PE-10; 7.5 cm) allowing for the delivery of compounds to the lumbar spinal cord.
Rats were implanted with chronically indwelling intrathecal catheters (PE-10; 7.5 cm) allowing for the delivery of compounds to the lumbar spinal cord. In order to rule out the possibility that the lack of antinociception produced by NPFF was due to the degradation of the peptide we administered 1DME (a stable NPFF analog).

Data set [2] relates to Barrel Rotations. Conditions: 60 μg, reported by Panula et al. 1996; cited from earlier work.
In data set [3] the test system is Barrel Rotations. Put plainly: Barrel rotations after ICV administration of NPFF. The class given is in vivo, rat. As to conditions: naive rats. The source says:
Given that this is the only mention in the literature with respect to NPFF and barrel-rotation, we attempted to replicate this effect using naive rats implanted with ICV cannula.

Setting [4] is: R-SAT, Table 1, Efficacy is relative to endogenous ligand, read-out: NPFF1 % Efficacy.
Where [5] appears, read: R-SAT, Table 1, Efficacy is relative to endogenous ligand, read-out: NPFF2 % Efficacy.
The mark [6] stands for this setting: R-SAT, Table 1, NA = No activity detectable at the highest dose tested (20 μM), read-out: NPFF2 pEC50 (converted).

Counter-ions that a name gives are not always drawn. Like-named read-outs stand apart in the source and are kept apart here.

T2 sequence (Q9Y5X5 103-522): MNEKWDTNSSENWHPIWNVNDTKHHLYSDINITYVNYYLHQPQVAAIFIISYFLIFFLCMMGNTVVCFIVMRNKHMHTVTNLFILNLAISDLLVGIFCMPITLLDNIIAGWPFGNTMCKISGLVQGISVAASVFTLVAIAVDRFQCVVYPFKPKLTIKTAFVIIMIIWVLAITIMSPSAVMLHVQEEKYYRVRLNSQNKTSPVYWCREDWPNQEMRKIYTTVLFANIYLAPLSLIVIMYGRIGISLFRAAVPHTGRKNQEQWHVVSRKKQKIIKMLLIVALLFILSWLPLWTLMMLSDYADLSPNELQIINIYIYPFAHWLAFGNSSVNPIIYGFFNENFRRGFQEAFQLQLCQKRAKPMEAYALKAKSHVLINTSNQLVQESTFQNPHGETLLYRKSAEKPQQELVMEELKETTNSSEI
T1 sequence (Q9Y5X5 103-522 limits assumed): as the sequence (Q9Y5X5 103-522) above

In the case of `Cl.N=C(N)NN=Cc1ccc(Cl)c(Cl)c1` [Compound 1045.HCl, 1-(3,4-Dichlorobenzylideneamino)guanidine Hydrochloride], the Emax at NPFF2b was found to be 34%; at NPFF1 (R-SAT data, Table 2, multiple entries = different batches, read-out: NPFF1 % Efficacy Mean), 17.7%; at NPFF2 (R-SAT data, Table 2, multiple entries = different batches, read-out: NPFF2b % Efficacy Mean), 67.6%. On NPFF2 (NPFF2b pEC50 Mean, R-SAT data, Table 2, multiple entries = different batches), this molecule had an EC50 of 1000 nM. Moreover, the side effects observed result with rats (10 mg/kg) was “demonstrated writhing behavior and appeared lethargic”. Further, in the data set with rats, the “side effects at doses less than 10 mg/kg” value is reported as “not observed”.

Consider `CC(=NNC(=N)N)c1cc(C(F)(F)F)cc(C(F)(F)F)c1` [Compound 3028, 1-{1-[3,5-Bis-(trifluoromethyl)phenyl]ethylideneamino}guanidine Hydrochloride], for which the Emax at NPFF1 (setting [4]) turned out to be 9%; on NPFF2 (setting [5]), 23%. For the same molecule, the EC50 on NPFF2 (setting [6]) is 1260 nM.

For the molecule `CC(=NNC(=N)N)c1ccc2c(c1)OCO2` [Compound 3032, 1-[1-(Benzo[1,3]dioxol-5-yl)ethylideneamino]guanidine Hydrochloride], the Emax is 36% at NPFF1 (setting [4]) and 78% on NPFF2 (setting [5]). For the same molecule, the EC50 on NPFF1 (R-SAT, Table 1) is 12600 nM; on NPFF2 (setting [6]), 3980 nM.

For `CCN(CCO)c1ccc(C=NNC(=N)N)c(C)c1` [Compound 3036, 1-{4-[Ethyl-(2-hydroxyethyl)amino]-2-methylbenzylideneamino}guanidine Hydrochloride], the Emax on NPFF1 (setting [4]) was 84%; on NPFF2 (setting [5]), 82%. Besides, the EC50 at NPFF1 (R-SAT, Table 1) was 1260 nM; at NPFF2 (setting [6]) it was 631 nM.

For the molecule `CCN(CC)c1ccc(C=NNC(=N)N)c(O)c1` [Compound 3037, 1-(4-Diethylamino-2-hydroxybenzylideneamino)guanidine Hydrochloride], the figures for the Emax at NPFF1 (setting [4]) and on NPFF2 (setting [5]) were 39% and 59%, respectively. In addition, the EC50 at NPFF1 (R-SAT, Table 1) is 794 nM; on NPFF2 (setting [6]) it was 3160 nM.

Take `CCN(CC)c1ccc(C=NNC(=N)N)cc1` [Compound 3038, 1-(4-Diethylaminobenzylideneamino)guanidine Hydrochloride]: the Emax is 72% on NPFF1 (setting [4]) and 65% at NPFF2 (setting [5]). Moreover, the EC50 was 1000 nM on NPFF1 (R-SAT, Table 1) and 1260 nM on NPFF2 (setting [6]).

As for `CC(=NNC(=N)N)c1ccc(N2CCCCC2)cc1` [Compound 3039, 1-[1-(4-Piperidin-1-yl-phenyl)ethylideneamino]guanidine Hydrochloride], the figures for the Emax on NPFF1 (setting [4]) and at NPFF2 (setting [5]) were 43% and 46%, respectively. Besides, the EC50 at NPFF1 (R-SAT, Table 1) was 398 nM; at NPFF2 (setting [6]) it was 501 nM.

For the molecule `CN(CCC#N)c1ccc(C=NNC(=N)N)cc1` [Compound 3040, 1-{4-[Methyl-(2-cyanoethyl)amino]benzylideneamino}guanidine Hydrochloride], the Emax was determined as 48% at NPFF1 (setting [4]) and 70% at NPFF2 (setting [5]). Moreover, the EC50 was 1580 nM on NPFF1 (R-SAT, Table 1) and 2000 nM on NPFF2 (setting [6]).

Turning to `CN(CCO)c1ccc(C=NNC(=N)N)cc1` [Compound 3041, 1-{4-[Methyl-(2-hydroxyethyl)amino]benzylideneamino}guanidine Hydrochloride], the Emax was 30% on NPFF1 (setting [4]) and 53% at NPFF2 (setting [5]). For the same molecule, the EC50 was 10000 nM on NPFF1 (R-SAT, Table 1) and 10000 nM at NPFF2 (setting [6]).

Regarding `CCN(CC)c1ccc(C=NNC(=N)N)c(OC)c1` [Compound 3043, 1-(2-Methoxy-4-N,N-diethylaminobenzylideneamino)guanidine Hydrochloride], the Emax at NPFF1 (setting [4]) was determined as 60%; at NPFF2 (setting [5]) it was 92%. For the same molecule, the EC50 on NPFF1 (R-SAT, Table 1) is 1000 nM; on NPFF2 (setting [6]), 1000 nM.

Turning to `N=C(N)NN=Cc1ccc(C(F)(F)F)cc1` [Compound 4002, 1-[(4-Trifluoromethyl)benzylideneamino]guanidine Hydrochloride], the results for the Emax at NPFF1 (setting [4]) and at NPFF2 (setting [5]) were 20% and 80%, respectively. The EC50 at NPFF1 (R-SAT, Table 1) is 3980 nM; at NPFF2 (setting [6]) it was 2510 nM.

For the molecule `COc1ccc(C=NNC(=N)N)c(OC)c1` [Compound 4003, 1-(2,4-Dimethoxybenzylideneamino)guanidine Hydrochloride], the Emax at NPFF1 (setting [4]) and at NPFF2 (setting [5]) was 41% in each case. Further, the EC50 is 12600 nM on NPFF1 (R-SAT, Table 1) and 6310 nM at NPFF2 (setting [6]).

`COc1cccc(C=NNC(=N)N)c1OC` [Compound 4004, 1-(2,3-Dimethoxybenzylideneamino)guanidine Hydrochloride]: the figures for the Emax on NPFF1 (setting [4]) and at NPFF2 (setting [5]) were 15% and 49%, respectively. Further, the EC50 on NPFF2 (setting [6]) was 10000 nM.

Regarding `CCOc1ccc(C=NNC(=N)N)cc1` [Compound 4005, 1-(4-Ethoxybenzylideneamino)guanidine Hydrochloride], the Emax at NPFF1 (setting [4]) is 89%; at NPFF2 (setting [5]), 49%. Besides, the EC50 at NPFF1 (R-SAT, Table 1) is 10000 nM; on NPFF2 (setting [6]) it was 5010 nM.

`CCCOc1ccc(C=NNC(=N)N)cc1` [Compound 4006, 1-(4-n-Propoxybenzylideneamino)guanidine Hydrochloride]: the values for the Emax on NPFF1 (setting [4]) and at NPFF2 (setting [5]) were 78% and 53%, respectively. The EC50 is 3980 nM on NPFF1 (R-SAT, Table 1) and 2000 nM on NPFF2 (setting [6]).

`[H]/N=C(\N)NN=Cc1ccc(Cl)cc1` [Compound 4008, 1-(4-Chlorobenzylideneamino)guanidine Hydrochloride]: the Emax came out at 47% on NPFF1 (setting [4]) and 64% at NPFF2 (setting [5]). In addition, the EC50 was 3980 nM on NPFF1 (R-SAT, Table 1) and 6310 nM at NPFF2 (setting [6]).

As for `COc1cc(OC)c(C=NNC(=N)N)cc1Br` [Compound 4015, 1-(5-Bromo-2,4-dimethoxybenzylideneamino)guanidine Hydrochloride], the Emax on NPFF1 (setting [4]) worked out at 37%; on NPFF2 (setting [5]), 64%. Besides, the EC50 on NPFF1 (R-SAT, Table 1) was 7940 nM; at NPFF2 (setting [6]), 2000 nM.

As for `CN1CC[C@]23c4c5ccc(O)c4O[C@H]2[C@@H](O)C=C[C@H]3[C@H]1C5` [Morphine, morphine], the “A50, antinociception” value in data set [1] (95% CI) is 9.8 µg. Moreover, the “antinociception in 52° C. water tail flick test” value in data set [1] (morphine 3, 10, 30 μg, NPFF 100 μg, 1045 11.6 or 115.5 μg, 1DME 5.6, 55.6 or 556.0 μg) was “produced dose-related antinociception”.

Consider `CC(C)C[C@H](NC(=O)[C@@H](N)Cc1ccccc1)C(=O)N[C@@H](Cc1ccccc1)C(=O)N[C@@H](CCC(N)=O)C(=O)N1CCC[C@H]1C(=O)N[C@@H](CCC(N)=O)C(=O)N[C@@H](CCCN=C(N)N)C(=O)N[C@@H](Cc1ccccc1)C(N)=O` [NPFF, Neuropeptide FF], for which the “barrel-rotation after ICV administration” value with Barrel Rotations [2] is “elicits barrel-rotation”. Besides, the “rats demonstrating barrel rolling seizures” value is 0 out of 3 with Barrel Rotations [3] (60 μg), 1 out of 2 in the data set with Barrel Rotations [3] (120 μg) and 3 out of 5 in the data set with Barrel Rotations [3] (150 μg).
